According to patent US6156700A, “3-(1,2-Benzisothiazol- and isoxazol-5-yl)-2,4(1H,3H)-pyrimidinedione or thione and 3-(1,2-benzisothiazol- and isoxazol-5-yl)-4(3H)-pyrimidinone or thione herbicidal agents” (American Cyanmid Company, priority 1998, dated 2000):

Experiments:
[1] = system: Sicklepod, Cassia obtusifolia; assay: Postemergence herbicidal evaluation, CASOB; type: in vivo, L.; settings: 0.0630 kg/ha
Experimental: (§1) In the tests, seedling plants are grown in jiffy flats for about two weeks. The test compounds are dispersed in 50/50 acetone/water mixtures containing 0.5% TWEEN®20, a polyoxyethylene sorbitan monolaurate surfactant of Atlas Chemical Industries, in sufficient quantities to provide the equivalent of about 0.0157 kg to 0.500 kg per hectare of active compound when applied to the plants through a spray nozzle operating at 40 psi for a predetermined time. After spraying, the plants are placed on greenhouse benches and are cared for in accordance with conventional greenhouse procedures. From four to five weeks after treatment, the seedling plants are examined and rated according to the rating system set forth below. Where more than one test is involved for a given compound, the data are averaged.
(§2) Results of herbicide evaluation are expressed on a rating scale (0-9). The scale is based upon a visual observation of plant stand, vigor, malformation, size, chlorosis and overall plant appearance as compared with a control.

[2] = system: Lambsquarters, Common, Chenopodium album; assay: Postemergence herbicidal evaluation, CHEAL; type: in vivo, L.; settings: 0.0630 kg/ha
Experimental: as §1, §2

Corn, Field, Zea mays = assay: Postemergence herbicidal evaluation, ZEAMX; type: in vivo, L.; settings: 0.0630 kg/ha
Experimental: as §1, §2

[3] = system: Wheat, Winter, cv Riband, Triticum aestivum; assay: Postemergence herbicidal evaluation, TRZAWR; type: in vivo; settings: 0.0630 kg/ha
Experimental: as §1, §2

Galium, Galium aparine = assay: Postemergence herbicidal evaluation, GALAP; type: in vivo; settings: 0.0630 kg/ha
Experimental: as §1, §2

[4] = system: Barnyardgrass, Echinochloa crus-galli; assay: Postemergence herbicidal evaluation, ECHCG; type: in vivo, (L.) Beau; settings: 0.0630 kg/ha
Experimental: as §1, §2

[5] = system: Rice, Tebonnet, Oryza sativa; assay: Postemergence herbicidal evaluation, ORYSAT; type: in vivo, (L.) Tebonnet; settings: 0.0630 kg/ha
Experimental: as §1, §2

[6] = system: Foxtail, Green, Setaria viridis; assay: Postemergence herbicidal evaluation, SETVI; type: in vivo, (L.) Beau; settings: 0.0630 kg/ha
Experimental: as §1, §2

[7] = system: Morningglory, Ivyleaf, Ipomoea hederacea; assay: Postemergence herbicidal evaluation, IPOHE; type: in vivo, (L.) Jacq.; settings: 0.0630 kg/ha
Experimental: as §1, §2

[8] = system: Velvetleaf, Abutilon theophrasti; assay: Postemergence herbicidal evaluation, ABUTH; type: in vivo, Medic.; settings: 0.0630 kg/ha
Experimental: as §1, §2

[9] = system: Ragweed, Common, Ambrosia artemisifolia; assay: Postemergence herbicidal evaluation, AMBEL; type: in vivo, L.; settings: 0.0630 kg/ha
Experimental: as §1, §2

[10] = system: Soybean, Williams, Glycine max; assay: Postemergence herbicidal evaluation, GLXMAW; type: in vivo, (L.) Merr. cv Williams; settings: 0.0630 kg/ha
Experimental: as §1, §2

MOOVA Monochoria = assay: Postemergence weed control, flooded paddy (Table IV); type: in vivo, Monochoria vaginalis; set-up: scale not given here
Text: (§3) Plastic containers containing weeds which are 3 to 5 cm tall and rice seedlings at the 1.5 to 2.5 leaf stage are flooded with water. The water is maintained at 1.5 to 3 cm above the soil surface for the duration of the experiment. Test compounds are applied as aqueous/acetone mixtures 50/50 v/v directly into the flood water to provide the equivalent of about 0.0313 to 0.500 kg/ha of active ingredient. The treated containers are placed on greenhouse benches and cared for in accordance with conventional greenhouse procedures. Three to four weeks after treatment, the test is terminated and each container is examined and herbicidal effect rated according to the rating system provided in Example 185. The compounds evaluated are reported by compound number given in Example 185.

ORYSAT Rice, Tebonnet = assay: Rice tolerance, flooded paddy (Table IV); type: in vivo, Oryza sativa; set-up: scale not given here; settings: crop tolerance
Text: as §3

CYPIR Rice Flatsedge = assay: Postemergence weed control, flooded paddy (Table IV); type: in vivo, Cyperus iria; set-up: scale not given here
Text: as §3

CYPSE Flatsedge = assay: as above; type: in vivo, Cyperus serotinus; set-up: scale not given here
Text: as §3

[11] = system: SAGPY Arrowhead (Pygmaea); assay: as above; type: in vivo, Sagittaria pygmaea; set-up: scale not given here
Text: as §3

[12] = system: ECHORC Watergrass (Calif.); assay: as above; type: in vivo, Echinochloa oryzoides; set-up: scale not given here
Text: as §3

Row | SMILES | herbicide rating (0-9) [1] | herbicide rating (0-9) [2] | herbicide rating (0-9) (Corn, Field, Zea mays) | herbicide rating (0-9) [3] | herbicide rating (0-9) (Galium, Galium aparine) | herbicide rating (0-9) [4] | herbicide rating (0-9) [5] | herbicide rating (0-9) [6] | herbicide rating (0-9) [7] | herbicide rating (0-9) [8] | herbicide rating (0-9) [9] | herbicide rating (0-9) [10] | herbicidal effect rating (MOOVA Monochoria; 0.1250 kg/ha) | herbicidal effect rating (MOOVA Monochoria; 0.2500 kg/ha) | herbicidal effect rating (ORYSAT Rice, Tebonnet; 0.1250 kg/ha) | herbicidal effect rating (ORYSAT Rice, Tebonnet; 0.2500 kg/ha) | herbicidal effect rating (CYPIR Rice Flatsedge; 0.1250 kg/ha) | herbicidal effect rating (CYPIR Rice Flatsedge; 0.2500 kg/ha) | herbicidal effect rating (CYPSE Flatsedge; 0.1250 kg/ha) | herbicidal effect rating (CYPSE Flatsedge; 0.2500 kg/ha) | also measured
1 | COCc1nsc2ccc(-n3c(=O)cc(C(F)(F)F)n(C)c3=O)cc12 [Compound 31, 3-[3-(Methoxymethyl)-1,2-benzisothiazol-5-yl]-1-methyl-6-(trifluoromethyl)-2,4 (1H,3H)-pyrimidinedione] | 9.0 | 9.0 | 6.0 | 3.0 | 8.0 | 4.0 | 3.0 | 9.0 | 9.0 | 9.0 | 9.0 | 9.0 | – | – | – | – | – | – | – | – | –
2 | CC(=O)OCc1nsc2ccc(-n3c(=O)cc(C(F)(F)F)n(C)c3=O)cc12 [Compound 32, 3-[3-(Hydroxymethyl)-1,2-benzisothiazol-5-yl]-1-methyl-6-(trifluoromethyl)-2,4(1H,3H)-pyrimidinedione,acetate ester] | 4.0 | 9.0 | 5.5 | 2.0 | 7.0 | 2.0 | 1.0 | 5.0 | 9.0 | 9.0 | 9.0 | 5.5 | – | – | – | – | – | – | – | – | –
3 | COC(=O)C(C)Oc1ccc(C)cc1-c1nsc2ccc(-n3c(=S)cc(C(F)(F)F)n(C)c3=O)cc12 (stereo not drawn) [Compound 33, Methyl 2-{{2-{5-[3,6-dihydro-3-methyl-2-oxo-6-thioxo-4-(trifluoromethyl)-1(2H)-pyrimidinyl]-1,2-benzisothiazol-3-yl}-p-tolyl}oxy}propionate] | 8.0 | 9.0 | 8.5 | 8.5 | 9.0 | 9.0 | 7.5 | 9.0 | 9.0 | 9.0 | 9.0 | 6.0 | – | – | – | – | – | – | – | – | –
4 | COc1cc(C)c(C)c(C)c1-c1nsc2ccc(-n3c(=O)cc(C(F)(F)F)n(C)c3=O)cc12 [Compound 34, 3-[3-(6-Methoxy-2,3,4-trimethylphenyl)-1,2-benzisothiazol-5-yl]-1-methyl-6-(trifluoromethyl)-2,4(1H,3H)-pyrimidinedione] | 0.0 | 4.0 | 4.0 | 0.0 | 0.0 | 1.0 | 0.0 | 7.0 | 0.0 | 0.0 | 1.0 | 3.0 | – | – | – | – | – | – | – | – | –
5 | Cn1c(C(F)(F)F)cc(=O)n(-c2ccc3snc(Br)c3c2)c1=O [Compound 36, 3-(3-Bromo-1,2-benzisothiazol-5-yl)-1-methyl-6-(trifluoromethyl)-2,4(1H,3H)-pyrimidinedione] | 0.0 | 0.0 | 1.5 | 0.5 | 0.0 | 1.0 | 0.5 | 9.0 | 1.0 | 0.0 | 0.0 | 0.0 | – | – | – | – | – | – | – | – | –
6 | Cn1c(C(F)(F)F)cc(=O)n(-c2ccc3snc(Cl)c3c2)c1=O [Compound 37, 3-(3-chloro-1,2-benzisothiazol-5-yl)-1-methyl-6-(trifluoromethyl)-2,4(1H,3H)-pyrimidinedione] | 0.0 | 0.0 | 2.0 | 0.5 | 0.0 | 0.0 | 0.5 | 0.0 | 1.0 | 1.0 | 0.0 | 1.5 | – | – | – | – | – | – | – | – | –
7 | Cc1ccc(OCC(=O)n2cnc3ccccc32)c(-c2nsc3ccc(-n4c(=O)cc(C(F)(F)F)n(C)c4=O)cc23)c1 [Compound 62] | 7.0 | 9.0 | 7.0 | 5.5 | 6.0 | 9.0 | 5.5 | 9.0 | 9.0 | 9.0 | 9.0 | 9.0 | – | – | – | – | – | – | – | – | –
8 | CCCCC(=O)c1nsc2ccc(-n3c(=O)cc(C(F)(F)F)n(C)c3=O)cc12 [Compound 431, 2,4(1H,3H)-Pyrimidinedione, 1-methyl-6-(trifluoromethyl)-3-(3-valeryl-1,2-benzisothiazol-5-yl)-] | – | – | – | – | – | – | – | – | – | – | – | – | 9.0 | 9.0 | 3.0 | 7.0 | 9.0 | 9.0 | 0.0 | 4.0 | herbicidal effect rating ([11]; 0.1250 kg/ha): 0.0; herbicidal effect rating ([11]; 0.2500 kg/ha): 4.0; herbicidal effect rating ([12]; 0.1250 kg/ha): 9.0; herbicidal effect rating ([12]; 0.2500 kg/ha): 9.0
9 | Cn1c(C(F)(F)F)cc(=O)n(-c2ccc3snc(C(=O)C(C)(C)C)c3c2)c1=O [Compound 432, 2,4(1H,3H)-Pyrimidinedione, 1-methyl-3-(3-pivaloyl-1,2-benzisothiazol-5-yl)-6-(trifluoromethyl)-] | – | – | – | – | – | – | – | – | – | – | – | – | 9.0 | 9.0 | 7.0 | 7.0 | 9.0 | 9.0 | 7.0 | 9.0 | herbicidal effect rating ([11]; 0.1250 kg/ha): 2.0; herbicidal effect rating ([11]; 0.2500 kg/ha): 4.0; herbicidal effect rating ([12]; 0.1250 kg/ha): 9.0; herbicidal effect rating ([12]; 0.2500 kg/ha): 9.0
10 | CCC(C#N)(CC)c1nsc2ccc(-n3c(=O)cc(C(F)(F)F)n(C)c3=O)cc12 [Compound 445, 1,2-Benzisothiazole-3-acetonitrile, 5-[3,6-dihydro-3-methyl-2,6-dioxo-4-(trifluoromethyl)-1(2H)-pyrimidinyl]-alpha,alpha-diethyl-] | – | – | – | – | – | – | – | – | – | – | – | – | 2.0 | 9.0 | 7.0 | 7.0 | 9.0 | 9.0 | 4.0 | 4.0 | herbicidal effect rating ([11]; 0.1250 kg/ha): 4.0; herbicidal effect rating ([11]; 0.2500 kg/ha): 9.0; herbicidal effect rating ([12]; 0.1250 kg/ha): 9.0; herbicidal effect rating ([12]; 0.2500 kg/ha): 9.0
11 | COc1ccc(I)cc1-c1nsc2ccc(-n3c(=O)cc(C(F)(F)F)n(C)c3=O)cc12 [Compound 448, 2,4(1H,3H)-Pyrimidinedione, 3-[3-(5-iodo-2-methoxyphenyl)-1,2-benzisothiazol-5-yl]-1-methyl-6-(trifluoromethyl)-] | – | – | – | – | – | – | – | – | – | – | – | – | 1.0 | 4.0 | 1.0 | 2.0 | 7.0 | 9.0 | 0.0 | 0.0 | herbicidal effect rating ([11]; 0.1250 kg/ha): 0.0; herbicidal effect rating ([11]; 0.2500 kg/ha): 0.0; herbicidal effect rating ([12]; 0.1250 kg/ha): 1.0; herbicidal effect rating ([12]; 0.2500 kg/ha): 2.0
